Entries after “also recorded” stand apart in the source; their conditions may differ.
Tests used:
Mig6 [1] = experiment: Immunoblot analysis of Mig6 expression in SCC-R cells; format: cell-based, human; conditions: for expression of Mig6: AKI or U0126 10 or 20 μM, LY294002 10 or 25 μM, rapamycin 1 or 2 μM
Excerpt: Antibodies against EGFR, phospho-tyrosine (P-Tyr-100), phospho-EGFR (Tyr1068), phospho-HER2/ErbB2 (Tyr1248), AKT, phospho-AKT (Ser473), p44/42 MAPK, (Erk1/2), phospho-p44/42 MAPK (Erk1/2) (Thr202/Tyr204), and PTEN were obtained from Cell Signaling Technology, Inc. (Beverly, Mass.). Monoclonal anti-P-Actin antibody was obtained from Sigma (St. Louis, Mo.). Polyclonal anti-Mig6 antibody was a generous gift from Dr. Ferby (15). […] Equal amounts of protein were mixed with Laemmli sample buffer, run on 4-12% NuPAGE gels and transferred to nitrocellulose membrane (Bio-Rad Laboratories, Hercules, Calif.). The membrane was probed with primary antibody followed by HRP-conjugated appropriate secondary antibodies (Santa Cruz Biotech, Santa Cruz, Calif.), and detected by enhanced chemiluminescence (ECL, GE Health Care, Piscataway, N.J.).

EGFR [2] = experiment: Immunoblot/densitometric analysis of phospho-EGFR/total EGFR in SCC-R cells; format: cell-based, human; conditions: inhibitor 24 hrs (25 μM LY294002, 20 μM AKI, 2 μM rapamycin, 20 μM U0126), then 10 ng/ml EGF 30 min
Experimental: (§1) Antibodies against EGFR, phospho-tyrosine (P-Tyr-100), phospho-EGFR (Tyr1068), phospho-HER2/ErbB2 (Tyr1248), AKT, phospho-AKT (Ser473), p44/42 MAPK, (Erk1/2), phospho-p44/42 MAPK (Erk1/2) (Thr202/Tyr204), and PTEN were obtained from Cell Signaling Technology, Inc. (Beverly, Mass.). Monoclonal anti-P-Actin antibody was obtained from Sigma (St. Louis, Mo.). Polyclonal anti-Mig6 antibody was a generous gift from Dr. Ferby (15). When appropriate, cells were cultured in serum free medium overnight, pretreated with the indicated inhibitors for 3 hrs or […], and the treated with 10 ng/ml EGF for 10 or 30 min. Equal amounts of protein were mixed with Laemmli sample buffer, run on 4-12% NuPAGE gels and transferred to nitrocellulose membrane (Bio-Rad Laboratories, Hercules, Calif.). The membrane was probed with primary antibody followed by HRP-conjugated appropriate secondary antibodies (Santa Cruz Biotech, Santa Cruz, Calif.), and detected by enhanced chemiluminescence (ECL, GE Health Care, Piscataway, N.J.).

Mig6 [3] = experiment: Immunoblot analysis of Mig6 expression in 358 cells; format: cell-based, human; conditions: 24 hrs
Experimental: as §1

H358 cells = experiment: Cell viability of parental and TGF β-induced H358 cells; format: cell-based, human; conditions: TGF-β-induced mesenchymal-like cells vs parental
Experimental: (§2) Cells were plated at a density of 3000/well in 96-well plates. The following day, cells were treated with 0, 0.01, 0.033, 0.1, 0.33, 1, or 3.3 μM erlotinib for an additional 72 hrs. Cell viability was subsequently assayed using Calcein AM (Invitrogen), Fluorescence signals generated as a result of Calcein AM cleavage by viable cells were read by a Molecular Devices plate reader (Sunnyvale, Calif.) using an excitation frequency of 480 nm, and an emission frequency of 535 nm.

PANC215 = experiment: Erlotinib treatment of directly xenografted pancreatic tumors; format: in vivo, nude mice
Experimental: The xenografts were generated and erlotinib treatment was performed as published previously (17, 18). Relative tumor growth inhibition (TGI) was calculated as the relative tumor growth of treated mice divided by relative tumor growth of control mice (T/C).

PANC420 = experiment: as above; format: in vivo, nude mice
Experimental: (§3) The xenografts were generated and erlotinib treatment was performed as published previously (17, 18). Relative tumor growth inhibition (TGI) was calculated as the relative tumor growth of treated mice divided by relative tumor growth of control mice (T/C). The animals were maintained in accordance to guidelines of the American Association of Laboratory Animal Care and the research protocol was approved by the Johns Hopkins University Animal Use and Care Committee.

[4] = 150 mg per day; cited from earlier work
PANC410 = experiment: Erlotinib treatment of directly xenografted pancreatic tumors; format: in vivo, nude mice
Experimental: as §3

BML-5 = experiment: Erlotinib treatment of directly xenografted lung tumors; format: in vivo, nude mice; conditions: BML-5 compared with BML-1, BML-7, BML-11
Experimental: as §3

EGFR [5] = experiment: Immunoblot of EGF-induced EGFR phosphorylation in bladder and lung cancer cell lines; format: cell-based, human; conditions: all bladder and lung cancer cell lines tested; 0.1 μM erlotinib 3 hrs before 10 ng/ml EGF
Experimental: as §1, with “Equal amounts of protein were mixed with Laemmli sample buffer, run on 4-12% NuPAGE gels and transferred to nitrocellulose membrane (Bio-Rad Laboratories, Hercules, Calif.).” left out

SCC-S and SCC-R cells = experiment: Cell viability and drug sensitivity assay (Calcein AM), erlotinib-sensitive vs -resistant isogenic cells; format: cell-based, human; conditions: erlotinib 72 hrs, cell viability
Experimental: Drug resistant cell lines were generated via a process of slowly escalating exposure to erlotinib, as reported previously (16). SCC-S is used to designate the parental UM-SCCI cells exposed to DMSO, and SCC-R refers to the erlotinib resistant clone.
as §2

PANC140 = experiment: Erlotinib treatment of directly xenografted pancreatic tumors; format: in vivo, nude mice
Experimental: as §3

PANC294 = experiment: as above; format: in vivo, nude mice
Experimental: as §3

Mig6 [6] = experiment: Immunoblot analysis of Mig6 expression in 358/TGFβ1-day 21 and 358/TGFβ3-day 21 cells; format: cell-based, human; conditions: 24 hrs
Experimental: as §1

serum proteins = conditions: cited from earlier work
NSCLC = conditions: patients randomized to gefinitib or placebo; cited from earlier work
tumors in Errfil−/− mice = conditions: cited from earlier work
[7] = tested on: tumors in control Errfil+/+ mice; conditions: cited from earlier work

Structure (SMILES): O=c1[nH]c2ccccc2n1C1CCN(Cc2ccc(-c3nc4cc5[nH]cnc5cc4nc3-c3ccccc3)cc2)CC1 [AKI]
- expression of Mig6 (Mig6 [1]; 24 hrs): decreased
- ratio of phospho-EGFR to EGFR (EGFR [2]): increased

Structure (SMILES): N#CC(=C(/N)Sc1ccccc1N)/C(C#N)=C(\N)Sc1ccccc1N [U0126]
- expression of Mig6 (Mig6 [1]; 24 hrs): decreased
- expression of Mig6 (Mig6 [3]): reduced
- ratio of phospho-EGFR to EGFR (EGFR [2]): increased

Structure (SMILES): C#Cc1cccc(Nc2ncnc3cc(OCCOC)c(OCCOC)cc23)c1 [erlotinib]
- basal Mig6 expression (Mig6 [1]; 0.2 or 1 μM erlotinib, 24 hrs): only a slight decrease
- EGF-induced Mig6 upregulation (Mig6 [1]; erlotinib pretreatment 30 min then 10 ng/ml EGF 24 hrs): completely abolish
- resistance to erlotinib, cell viability (H358 cells): acquired increasing resistance
- erlotinib responsiveness of xenografted pancreatic tumor (PANC215): erlotinib-resistant
- expression of Mig6 (Mig6 [3]): reduced
- erlotinib responsiveness of xenografted pancreatic tumor (PANC420): erlotinib-resistant
- steady-state serum concentration, median [4]: 2.9 µM
- erlotinib responsiveness of xenografted pancreatic tumor (PANC410): erlotinib-sensitive
- response of lung xenograft to erlotinib (tumor growth) (BML-5): sensitive; also recorded: better response
- ligand-induced EGFR phosphorylation (EGFR [5]): effectively block
- IC50 of SCC-R cells relative to SCC-S cells (SCC-S and SCC-R cells): > 10 times
- erlotinib responsiveness of xenografted pancreatic tumor (PANC140): erlotinib-resistant
- erlotinib responsiveness of xenografted pancreatic tumor (PANC294): erlotinib-resistant
- expression of Mig6 (Mig6 [6]): failed to suppress
- bound to serum proteins (serum proteins): 90%

Structure (SMILES): COc1cc2ncnc(Nc3ccc(F)c(Cl)c3)c2cc1OCCCN1CCOCC1 [gefitinib]
- overall difference of PFS vs placebo (NSCLC): 7 days
- sensitivity of carcinogen-induced tumors to gefitinib (tumors in Errfil−/− mice; Errfil−/− mice): unusually sensitive
- tumor regression (tumors in Errfil−/− mice; in 1 week following initiation of gefitinib treatment): more than 50%
- tumor response to gefitinib [7]: did not respond

From patent US20130190310A1, “MIG6 AND THERAPEUTIC EFFICACY” (THE JOHNS HOPKINS UNIVERSITY, priority 2010, published 2013)
